Source: patent publication US9227968B2, “Method of treatment or prophylaxis of inflammatory pain” (Novartis AG, priority 2006, dated 2016)
Entries after “also recorded” stand apart in the source; their conditions may differ.

Tests used:
FCA-rats = experiment: Behavioural observations in FCA-rats; format: in vivo, rat; details: single bolus: EMA500 1-100 mg/kg i.p., EMA600 1-30 mg/kg i.p., morphine 0.5 mg/kg
From the text: The animals were monitored for visible and audible signs of distress throughout the testing period. The visible signs of distress included behavioural changes such as complete immobility, movement with abnormal gait, agitation, aggression, wet dog shakes, excessive grooming, restlessness with constant movement, repeated sudden movements or staring.

[1] = test system: ipsilateral hindpaw volume of FCA-rats; experiment: Paw volume measurement in FCA-rats (water displacement); format: in vivo, rat; details: 3 h post-dosing, single bolus doses tested
Protocol: Paw volume was assessed using displacement of water by the hindpaw to indicate the paw volume. These measurements were undertaken for both the ipsilateral and contralateral hindpaws prior to and 5 days after i.pl. FCA administration and prior to and 3 h post-dosing.

[2] = test system: contralateral (non-inflamed) hindpaw of FCA-rats; experiment: Paw Pressure Test (PPT) in FCA-rats (Example 2), antinociception in contralateral hindpaw; details: 0.5 mg/kg s.c.; did not reach statistical significance (p>0.05)
monoarthritic rats = experiment: Paw pressure test (vocalization threshold) in monoarthritic rats (intraarticular FCA); format: in vivo, rat; details: for antihyperalgesic effect in model of monoarthritis (overall): i.p. 0.1, 1 and 10 mg/kg
Protocol: Experimentation was done blindly using the block method with randomization. Unilateral monoarthritits was induced by an intraarticular injection of FCA (0.05 ml) into the tibio tarsial cavity of the right hindpaw of the rat under volatile anaesthetic (5% isofluorane). Fourteen days later, drugs were intraperitoneally given as a single administration. Pain reaction thresholds (vocalization or struggle) were measured using the paw pressure test before induction of monoarthritis, just before drug injections and 15 min, 30 min, 45 min, 1 h, 1 h 30, 2 h and 3 h after drug injections. Pressure was gradually applied to the injected hindpaw of the rat (tibio tarsial articulation) and pain reaction thresholds were determined as the pressure (g) required to elicit struggle or vocalization.
Results were expressed as pressure (g) which induces pain reaction (mean+/−SEM). The cut-off value corresponds to the maximum pressure that the apparatus allows (750 g). Data were analyzed by a two-way analysis of variance (ANOVA) to compare time-course scores. These analyses were followed by a Tukey test when the F-value was significant. The significance level was p<0.05.

[3] = test system: ipsilateral (inflamed) hindpaw of FCA-rats; experiment: Paw Pressure Test (PPT) in FCA-rats (Example 2), anti-hyperalgesia in ipsilateral hindpaw
[4] = Solubility of test articles in the dosing vehicle (Example 3); details: at 10 mg/kg (2 mL/kg, NaCl 0.9%/DMSO 50/50)
[5] = test system: ipsilateral (inflamed) hindpaw of the FCA-rat model of inflammatory pain; experiment: Paw Pressure Test, FCA-rat model of inflammatory pain (Example 1), ipsilateral hindpaw; format: in vivo; details: single i.p. bolus doses ~7-70 mg/kg (estimated doses)
Protocol: Single bolus doses of PD-123,319 were administered by the i.p. route to rats with FCA-induced unilateral hindpaw inflammation, a rat model of inflammatory pain. Anti-hyperalgesic (pain-relieving) efficacy was assessed using the Paw Pressure Test, a test which involves the application of noxious pressure to the inflamed hindpaw.
Following i.pl. […] The ability of single bolus doses of PD-123,319 (˜7-70 mg/kg) or vehicle to alleviate mechanical hyperalgesia in the ipsilateral (inflamed) hindpaw was assessed using the Paw Pressure Test (PPT).

## CN1CC[C@]23c4c5ccc(O)c4O[C@H]2[C@@H](O)C=C[C@H]3[C@H]1C5 [morphine]
FCA-rats
  adverse behavioural effects: did not produce adverse behavioural effects
[1]
  effect on ipsilateral hindpaw volume: did not alter ipsilateral hindpaw volumes; also recorded: unaffected
[2]
  antinociceptive effect in the contralateral hindpaw: small antinociceptive effect
Monoarthritic rats; morphine 5 mg/kg i.p., compared to pre-induction values
  antinociceptive effect (vocalization threshold): significant increase in the vocalization threshold
[3]; 0.5 mg/kg s.c. single bolus
  duration of action (anti-hyperalgesic response): 2 to 3 h
[3]; 0.5 mg/kg s.c. single bolus, post-dosing
  time of peak anti-hyperalgesic response: 0.5 h
[3]; 0.5 mg/kg s.c., 0.5 h post-dosing
  reversal of FCA-induced mechanical hyperalgesia: fully reversed FCA-induced mechanical hyperalgesia
[3]; 0.5 mg/kg s.c., 0.5 h post-dosing, pre-dosing 63.7 (±2.5) g
  mean (±SEM) PPT at the time of peak effect, ipsilateral hindpaw: 115.0 (±10.6) g

## COc1ccc2c(c1OCc1ccccc1)CC(C(=O)O)N(C(=O)C(c1ccccc1)c1ccccc1)C2 (single isomer, unassigned; (+)) [EMA400, (+)-2-(Diphenylacetyl)-1,2,3,4 tetrahydro-6-methoxy-5-(phenylmethoxy)-3-isoquinoline carboxylic acid]
[4]
  solubility issues: Solubility issues were observed
Monoarthritic rats; 1 mg/kg i.p., 15 minutes after the injection
  antihyperalgesic effect: +20%
Monoarthritic rats; 10 mg/kg i.p., 15 minutes after the injection
  antihyperalgesic effect: +40%
Monoarthritic rats; 10 mg/kg i.p., 30 minutes after the injection
  antihyperalgesic effect: significant antihyperalgesic effect
Monoarthritic rats
  antihyperalgesic effect in model of monoarthritis (overall): induce antihyperalgesic effects

## Cc1cc(Cn2cnc3c2CC(C(=O)O)N(C(=O)C(c2ccccc2)c2ccccc2)C3)ccc1N(C)C (stereo not drawn) [PD-123,319, 1-(4-Dimethylamino-3-methylphenyl)methyl-5-diphenylacetyl-4,5,6,7-tetrahydro-1H-imidazo[4,5-c]-pyridine-6-carboxylic acid]
[5]
  relief of mechanical hyperalgesia in the ipsilateral (inflamed) hindpaw: dose-dependent relief of mechanical hyperalgesia

## COc1ccc(Cn2cnc3c2CC(C(=O)O)N(C(=O)C(c2ccccc2)c2ccccc2)C3)cc1C (stereo not drawn) [EMA300, 1-(3-methyl-4-methoxyphenyl)-methyl-5-diphenylacetyl-4,5,6,7-tetrahydro-1H-imidazo[4,5-c]pyridine-6-carboxylic acid]
Monoarthritic rats; 0.1 mg/kg i.p., 15 and 30 minutes after drug injection
  antihyperalgesic effect: +6%
Monoarthritic rats; 1 mg/kg i.p., 15 and 30 minutes after drug injection
  antihyperalgesic effect: +22%
Monoarthritic rats; 10 mg/kg i.p., 15 and 30 minutes after drug injection
  antihyperalgesic effect: +56%
Monoarthritic rats
  antihyperalgesic effect in model of monoarthritis (overall): dose-dependent antihyperalgesic effect; also recorded: induce antihyperalgesic effects
